Broadly, the IC50 is the concentration that inhibits the measured activity by half.

The assay addresses T1, cellulose synthase (Novacetimonas hansenii, UniProt Q59167).
T1 construct: FLAG; made in house; host or cells: Escherichia coli SURE, as in Preparation 1
Kind of assay: Inhibitory concentration IC50 against cellulose synthase. The class given is biochemical, acetic acid bacteria. As to conditions: cellulose synthase (B-3) 1.5 U/mL. The procedure:
Hyaluronan synthase aqueous solution (B-1) obtained in Preparation 1 was dissolved to a concentration of 1.5 U/mL in 940 μL of aqueous solution 1 (50 mM phosphate buffer (pH of 7.5, 25° C.) containing 5 mM magnesium chloride and 0.05 mM sodium uridine diphosphate) in a 1.5 mL-tube. The tube was allowed to stand at 40° C. for 20 minutes in a constant temperature water bath. To the tube was added 50 μL of temperature-adjusted (40° C.) substrate solution [1-1] (a solution obtained by dissolving uridine diphosphate-glucuronic acid sodium salt and uridine diphosphate-N-acetylglucosamine both to a concentration of 20 mM in buffer solution B (50 mM phosphate buffer, pH of 7.5, 25° C.)). Thereby, enzyme reaction solution (I-1) was obtained. […] The supernatant (80 μL) was analyzed by HPLC under the following conditions, and the peak areas of hyaluronan were recorded. […]
The inhibitory concentration IC50 was measured in a similar manner as in “Measurement of the inhibitory concentration IC50 against hyaluronan synthase”, except that “cellulose synthase aqueous solution (B-3) obtained in Preparation 12” was used in place of “hyaluronan synthase aqueous solution (B-1) obtained in Preparation 1”, “substrate solution [1-3] […]
The inhibitory concentration IC50 was also determined in a similar manner, except that the amount of cellulose synthase aqueous solution (B-3) was changed from 1.5 U/mL to 45 U/mL. […]

T1 sequence (Q59167 whole entry): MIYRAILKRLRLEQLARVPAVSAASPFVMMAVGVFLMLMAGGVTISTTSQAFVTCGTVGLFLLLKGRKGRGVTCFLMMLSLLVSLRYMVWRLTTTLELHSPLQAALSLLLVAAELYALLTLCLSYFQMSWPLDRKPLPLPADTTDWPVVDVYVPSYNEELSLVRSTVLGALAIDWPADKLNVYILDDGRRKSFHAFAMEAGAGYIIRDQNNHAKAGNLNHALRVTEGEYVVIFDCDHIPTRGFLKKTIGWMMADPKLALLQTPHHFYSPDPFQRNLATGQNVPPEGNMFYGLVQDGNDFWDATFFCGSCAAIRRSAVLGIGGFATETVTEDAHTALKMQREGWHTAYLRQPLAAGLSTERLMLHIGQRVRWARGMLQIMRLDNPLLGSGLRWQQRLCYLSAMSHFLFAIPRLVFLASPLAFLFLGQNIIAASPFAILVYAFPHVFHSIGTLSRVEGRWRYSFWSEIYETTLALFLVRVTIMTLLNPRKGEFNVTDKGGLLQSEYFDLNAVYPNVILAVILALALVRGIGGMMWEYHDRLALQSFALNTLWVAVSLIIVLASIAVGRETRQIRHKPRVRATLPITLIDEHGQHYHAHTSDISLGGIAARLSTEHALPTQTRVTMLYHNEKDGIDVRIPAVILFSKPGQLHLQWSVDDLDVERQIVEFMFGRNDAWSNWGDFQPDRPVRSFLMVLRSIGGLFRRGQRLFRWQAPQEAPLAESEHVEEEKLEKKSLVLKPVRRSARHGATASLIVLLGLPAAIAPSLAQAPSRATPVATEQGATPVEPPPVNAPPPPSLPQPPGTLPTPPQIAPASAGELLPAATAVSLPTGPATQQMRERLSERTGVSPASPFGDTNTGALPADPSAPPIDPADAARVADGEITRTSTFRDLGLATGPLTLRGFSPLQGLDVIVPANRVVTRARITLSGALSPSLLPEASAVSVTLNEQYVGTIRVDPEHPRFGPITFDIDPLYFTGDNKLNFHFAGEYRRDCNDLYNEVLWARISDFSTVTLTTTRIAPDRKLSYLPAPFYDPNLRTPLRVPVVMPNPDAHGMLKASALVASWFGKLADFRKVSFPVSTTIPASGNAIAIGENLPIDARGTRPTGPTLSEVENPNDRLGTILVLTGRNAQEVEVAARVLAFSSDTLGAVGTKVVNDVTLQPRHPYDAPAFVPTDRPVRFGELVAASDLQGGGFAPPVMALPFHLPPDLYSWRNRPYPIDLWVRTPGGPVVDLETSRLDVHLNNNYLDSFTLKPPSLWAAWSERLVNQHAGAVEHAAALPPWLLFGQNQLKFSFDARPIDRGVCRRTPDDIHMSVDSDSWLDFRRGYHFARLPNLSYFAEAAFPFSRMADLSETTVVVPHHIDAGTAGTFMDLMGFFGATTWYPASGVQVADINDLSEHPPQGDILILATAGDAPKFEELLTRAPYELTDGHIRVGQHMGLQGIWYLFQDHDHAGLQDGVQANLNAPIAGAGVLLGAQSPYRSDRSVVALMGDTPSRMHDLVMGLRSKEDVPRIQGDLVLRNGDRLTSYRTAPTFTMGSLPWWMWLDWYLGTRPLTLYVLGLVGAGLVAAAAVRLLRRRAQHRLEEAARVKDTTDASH

In the case of `O=c1ccn([C@@H]2O[C@H](COP(=O)(O)OP(=O)(O)O)[C@@H](O)[C@H]2O)c(=O)[nH]1` [uridine diphosphate], it took 100 µM to reach half-maximal inhibition (IC50).
